Experimental data published in patent US20040234509A1, “Replacing liver cells with bone marrow-derived cells for treating disease and expressing therapeutic genes” (priority 2002, published 2004).

Tested on: Kupffer cells
Experiment: Kupffer cell replacement in mice: gadolinium chloride followed by GFP bone marrow stem cells
Type: in vivo, C57BL/6 mice
Protocol: Bone marrow derived from C57BL/6-TgN(ACTbEGFP)10sb mice was injected into the tail vein of recipient C57BL/6 mice. Recipient mice were separated into two groups. One group received saline injection the other received gadolinium chloride (20-60 mg/kg i.v.: ICN Biomedicals, Aurora, Ohio) 24 hours before they received the bone marrow cells obtained from C57BL/6-TgN (ACTbEGFP) 10sb mice. The amount of bone marrow cells administered varied between 2×10^6 to 100×10^6 cells/animal. Mice were sacrificed 2 weeks after the stem cells were injected and livers were removed, fixed and prepared for fluorescent microscopy.
C57BL/6 mice were injected with 60 mg/Kg of gadolinium chloride 24 hours before injecting stem cells intravenously.

[1] = 60 mg/Kg gadolinium chloride 24 hours before stem cells i.v., two weeks after injection

SMILES: [Cl][Gd]([Cl])[Cl] [gadolinium chloride]
- GFP labeled Kupffer cells in liver, 10×10^6 stem cells vs 2×10^6 stem cells [1]: many more GFP labeled Kupffer cells
- number of GFP-labeled Kupffer cells, 100×10^6 stem cells vs 10×10^6 stem cells [1]: did not significantly increase the number of GFP-labeled Kupffer cells
- survival / evidence of toxicity (C57BL/6 mice, gadolinium chloride 20-60 mg/kg i.v. plus 2×10^6 to 100×10^6 bone marrow cells/animal, 2 weeks): All mice survived and none showed evidence of any toxicity
- GFP-fluorescent Kupffer cells in liver (fluorescent microscopy) (gadolinium chloride 20-60 mg/kg i.v. 24 hours before bone marrow cells from TgN(ACTbEGFP)1Osb mice, livers 2 weeks after stem cells, vs saline control): contained many GFP-fluorescent Kupffer cells
